These results are taken from PMC5118987 (Antimicrobial Agents and Chemotherapy, 2016).

Data set [1] is described as follows: in vitro. Particulars: human.
Data set [2] relates to HRV (mixture of HRV1A, HRV14, HRV16). Description: microbe, parasite or virus in culture. In kind it is cell-based. The note with it: Human rhinovirus sp., H1-HeLa.
The subject of the next data set is HIV-2 CDC 310319. Nature of the data set: Antiviral assay against HIV-2 isolate in fresh human PBMCs (RT endpoint). The note with it: Human immunodeficiency virus 2, PBMC.
The next data set concerns HIV-1 clinical isolates. Nature of the data set: Antiviral assay against HIV-1 clinical isolates in fresh human PBMCs (RT endpoint).
The subject of the next data set is RSV strain A2. Nature of the data set: microbe, parasite or virus in culture. In kind it is cell-based, respiratory syncytial virus. Particulars: read-out: EC50.
A further data set concerns Influenza B/LEE/40. Description: microbe, parasite or virus in culture. Format: cell-based. The note with it: NHBE.
Data set [3] can be described thus: in vitro. The note with it: human. This is another data set of the same source.
Another data set has as its system Influenza A/PC/1/73. Nature of the data set: microbe, parasite or virus in culture. In kind it is cell-based. Particulars: NHBE.
Data set [4] in a line: in vitro. The note with it: human. The source holds these as a separate data set.
The next data set has as its system HCV 1b Replicon. Nature of the data set: Anti-HCV activity, HCV 1b replicon. Particulars: Hepatitis C virus, Huh-7. In general terms: Replicon systems follow genome replication, usually without infectious particles.
A short description of data set [5]: in vitro. Particulars: human. The source holds these as a separate data set.
Another data set has as its system HCV 2a Replicon. Description: Anti-HCV activity, HCV 2a replicon. Particulars: Hepatitis C virus, Huh-7.
Data set [6] is described as follows: Cytotoxicity in AD38 cells. Particulars: human.
Data set [7] concerns NRTI-, NNRTI- and PI-Resistant HIV-1 Mutants. Description: Antiviral activity against NRTI-, NNRTI- and PI-resistant HIV-1 mutants. In kind it is cell-based.
The next data set has as its system HIV-1 IIIb. Description: HIV breakthrough selection in MT-2 cells. Particulars: MT-2, HIV-1 IIIb; FTC 4× EC95, EVG 5× EC95, BIC and DTG 2.5× and 5× EC95; up to day 32.
A further data set concerns HBV Production. Description: microbe, parasite or virus in culture. The note with it: Hepatitis B virus.
The test system of another data set is HIV-1 BaL. The note with it: primary CD4+ T-cells, 35 days, drug at tissue culture equivalent clinical Cmin (FTC 160 × EC50).

For orientation: EC50 means the concentration at which the effect is half-maximal. Regarding `CCOC(=O)/C=C/[C@H](C[C@@H]1CCNC1=O)NC(=O)[C@@H](CC(=O)[C@@H](NC(=O)c1cc(C)on1)C(C)C)Cc1ccc(F)cc1` [Rupintrivir, rupintrivir], the CC50 in “in vitro [1]” is greater than 10000 nM. In addition, in data set [2], the EC50 came to 30 nM.

With `Cc1cn([C@H]2C[C@H](N=[N+]=[N-])[C@@H](CO)O2)c(=O)[nH]c1=O` [AZT, zidovudine], the EC50 amounted to 9.3 ± 4.6 nM in the data set on HIV-2 CDC 310319; 3.8 ± 0.6 nM with HIV-1 clinical isolates (Human immunodeficiency virus 1, BAL, PBMC, HIV-1 subtype B isolate BaL, human PBMCs); 2 ± 0.3 nM with HIV-1 clinical isolates (Human immunodeficiency virus 1, PBMC, HIV-1 subtype A isolate 92RW016, human PBMCs); 11.2 ± 3.7 nM in the data set with HIV-1 clinical isolates (Human immunodeficiency virus 1, PBMC, HIV-1 subtype A isolate 92UG037, human PBMCs); 3.6 ± 0.8 nM in the data set with HIV-1 clinical isolates (Human immunodeficiency virus 1, PBMC, HIV-1 subtype B isolate 89BZ_167, human PBMCs); 5.5 ± 2.5 nM in the data set with HIV-1 clinical isolates (Human immunodeficiency virus 1, PBMC, HIV-1 subtype B isolate 91US001, human PBMCs). In addition, the EC50 in the data set with HIV-1 clinical isolates (Human immunodeficiency virus 1, PBMC, HIV-1 subtype B isolate 91US004, human PBMCs) was 2.6 ± 1.5 nM; in the data set on HIV-1 clinical isolates (Human immunodeficiency virus 1, PBMC, HIV-1 subtype C isolate 93IN905, human PBMCs), 1.6 ± 0.7 nM; in the data set on HIV-1 clinical isolates (Human immunodeficiency virus 1, PBMC, HIV-1 subtype C isolate 98US_MSC5016, human PBMCs) it was 7.9 ± 4.4 nM; in the data set on HIV-1 clinical isolates (Human immunodeficiency virus 1, PBMC, HIV-1 subtype D isolate 98UG_57128, human PBMCs), 0.07 ± 0.03 nM; in the data set with HIV-1 clinical isolates (Human immunodeficiency virus 1, PBMC, HIV-1 subtype E isolate 96TH_M02138, human PBMCs), 5.5 ± 0.4 nM; in the data set with HIV-1 clinical isolates (Human immunodeficiency virus 1, PBMC, HIV-1 subtype E isolate 96TH_NI1046, human PBMCs), 2.3 ± 0.7 nM. This compound returned a 50% effective concentration (EC50) in the data set with HIV-1 clinical isolates (Human immunodeficiency virus 1, PBMC, HIV-1 subtype F isolate 93BR020, human PBMCs) of 8.1 ± 7.1 nM.

With `O=C(NC1CC1)c1cc2c(s1)-c1ccccc1N(C(=O)c1ccc(NC(=O)c3ccccc3-c3ccccc3)cc1)CC2` [YM-53403], the EC50 with RSV strain A2 turned out to be 350 nM. Further, the CC50 in the data set with HEp-2 Cells is greater than 50000 nM.

As for `Nc1nc2c(ncn2[C@@H]2O[C@H](CO)[C@@H](O)[C@H]2F)c(=O)[nH]1` [2'-FDG, 2′-fluoro-2′-deoxyguanosine], the EC50 was 14000 nM in the data set on Influenza B/LEE/40 and 6000 nM with Influenza A/PC/1/73. The CC50 in “in vitro [3]” was greater than 100000 nM.

`C[C@@]1(O)[C@H](O)[C@@H](CO)O[C@H]1n1cnc2c(N)ncnc21` [Compound 2-CMeA, 2′-C-methyladenosine]: the values for the CC50 in “in vitro [4]” and in “in vitro [5]” were greater than 44000 nM and 42200 nM, respectively. For the same compound, the EC50 in the data set with HCV 1b Replicon was determined as 112 nM; with HCV 2a Replicon, 301 nM.

In the case of `Nc1nc(=O)n([C@@H]2CS[C@H](CO)O2)cc1F` [FTC, emtricitabine], the CC50 at 5 days in data set [6] is greater than 50000 nM. In addition, the EC50 stood at 385 ± 225 nM in [7] (Human immunodeficiency virus 1, WT, Table S7) and 20 nM in the data set with HBV Production. Moreover, in [7] (NRTI resistant 6TAMs), the “EC50 Fold Change Relative to WT” value is recorded as 10.8 fold change. Besides, the “day postinfection of HIV-1 breakthrough” value with HIV-1 IIIb was 7 days. The “Frequency of Viral Breakthrough with RAMs” value with HIV-1 BaL is recorded as 58%. In addition, the “p24+ Wells” value with HIV-1 BaL is on record as 14/24.
